Read-outs that look alike come from different tables or passages of the source.

In data set [1] the test system is Influenza (INFL) B. As to the kind of experiment: Direct antiviral activity, Influenza B. The class given is cell-based. As to conditions: Influenza B virus; read-out: Dir. Antiviral activity (EC50) INFL. B. The protocol:
(§1) In vitro testing for direct antiviral activity of Levovirin™ and Ribavirin against influenza A and B, parainfluenza 1 and 2, and respiratory syncytial virus were performed as described in Huffman, J. H. et al. Antiviral Chem. and Chemother. 1997, 8: 75-83 and Barnard, D. L. et al. Antiviral Chem. and Chemother 1997, 8: 223-233. Anti-human immunodeficiency virus activity was assessed by the National Cancer Institute using a procedure designed to detect agents acting at any stage of the virus reproductive cycle [Weislow, O. W. et al., J. Natl. Cancer Inst. 1989, 81: 577-5861. Anti-hepatitis B (HBV) activity was monitored by using an assay as described by Marion et al., Hepatology 1987, 7: 724-731. Anti-HIV activity and cytotoxicity for Ribavirin was determined from previous data [McCormick, J. B., Lancet, 1998, II: 1367-1369.

Data set [2] has as its system Influenza (INFL) A. Kind of data set: microbe, parasite or virus in culture. The data set is classed as cell-based. As to conditions: read-out: Dir. Antiviral activity (EC50) INFL. A.
The test system of data set [3] is IL-2. Kind of data set: SEB-activated T cell cytokine ELISA, IL-2. The class given is cell-based, human. For orientation: An ELISA detects its analyte on a solid surface through an enzyme-linked reagent.
Data set [4] concerns human immunodeficiency virus (HIV). The note with it: read-out: Dir. Antiviral activity (EC50) HIV; cited from earlier work.
Data set [5] concerns Concanavalin A induced hepatitis. The data set is classed as in vivo. As to conditions: BALB/c mice, single i.p. dose 20 μg (1 mg/kg) 1 hr before i.v. 0.3 mg Con A; serum after 24 hr; PBS control about 1900 U/ml.
Data set [6] relates to IFN-γ. As to the kind of experiment: SEB-activated T cell cytokine ELISA, IFN-γ. The data set is classed as cell-based, human.
Data set [7] deals with Parainfluenza (PARA) 3. As to the kind of experiment: organism not typed. As to conditions: read-out: Dir. Antiviral activity (EC50) PARA 3. The class given is cell-based, Parainfluenza 3.
The subject of data set [8] is Hepatitis B (HBV). Kind of data set: microbe, parasite or virus in culture. The data set is classed as cell-based. As to conditions: read-out: Dir. Antiviral activity (EC50) HBV.
Data set [9] in a line: Cytotoxicity in Influenza A assay. The class given is cell-based. As to conditions: cells infected with Influenza A; read-out: Cytotoxicity (CC50) INFL. A. The protocol:
as §1

Data set [10] concerns cells infected with HIV. As to conditions: cited from earlier work.
Data set [11] deals with Parainfluenza (PARA) 1. As to the kind of experiment: organism not typed. As to conditions: read-out: Dir. Antiviral activity (EC50) PARA 1. The class given is cell-based, Parainfluenza 1.
Data set [12] concerns rats. The note with it: rat, in vivo, po, 180 mg/kg.
A short description of data set [13]: Cytotoxicity in Influenza B assay. The class given is cell-based. The note with it: cells infected with Influenza B; read-out: Cytotoxicity (CC50) INFL. B. The protocol:
as §1

Data set [14] has as its system respiratory syncytial virus (RSV). As to the kind of experiment: microbe, parasite or virus in culture. The class given is cell-based. As to conditions: human respiratory syncytial virus, read-out: Dir. Antiviral activity (EC50) RSV.
For data set [15], the system named is TNF-α. Kind of data set: SEB-activated T cell cytokine ELISA, TNF-α. The data set is classed as cell-based, human.
Data set [16] relates to cells infected with Parainfluenza 3.
Data set [17] concerns cells infected with Influenza A. As to the kind of experiment: Cytotoxicity in Influenza A assay. The note with it: read-out: Cytotoxicity (CC50) INFL. A. The data set is classed as cell-based. The protocol: as §1
Data set [18] deals with cells infected with HIV.
Data set [19] relates to human immunodeficiency virus (HIV). Kind of data set: microbe, parasite or virus in culture. The data set is classed as cell-based. As to conditions: Human immunodeficiency virus 1, read-out: Dir. Antiviral activity (EC50) HIV.
Data set [20] deals with cells infected with Influenza B. As to the kind of experiment: Cytotoxicity in Influenza B assay. The data set is classed as cell-based. The note with it: read-out: Cytotoxicity (CC50) INFL. B. The protocol:
as §1

Data set [21] concerns cells infected with Parainfluenza 1.
[22] abbreviates: SEB stimulated T cells, 48 hrs, 0-10 μM compound, +/- standard deviation, 100% = no effect.

Regarding `NC(=O)c1ncn([C@@H]2O[C@H](CO)[C@@H](O)[C@H]2O)n1` [Ribavirin], the EC50 was 1.9 µM in data set [1]; 6.1 µM in [2]; 40 µM in data set [4]; 4 µM in data set [7]; > 100 µM in data set [8]; 40 µM in data set [11]. For the same compound, the EC50 in data set [14] amounted to 5 µM. In addition, in data set [3] (setting [22]), the “IL-2, mean percentage of activated control” value is given as 143 ±18%. Moreover, the “Con A induced serum ALT level” value in data set [5] was determined as 969 U/ml. For the same compound, in data set [6] (setting [22]), the “IFN-γ, mean percentage of activated control” value is recorded as 131 ± 6%. For the same compound, the CC50 in data set [9] was 56 µM; in data set [10] it was > 40 µM; in data set [13], > 100 µM. Besides, in data set [12], the “Clinical pathology (hemolytic anemia, leukopenia)” value was “produced significant hemolytic anemia and leukopenia”. Moreover, in [15] (setting [22]), the “TNF-α, mean percentage of activated control” value was 124 ± 4%.
Take `NC(=O)c1ncn([C@H]2O[C@@H](CO)[C@H](O)[C@@H]2O)n1` [Levovirin™, 1-(β-L-ribofuranosyl)-1,2,4-triazole-3-carboxamide]: the EC50 in data set [2] was > 200 µM; in [7] it was > 1000 µM; in data set [8], > 100 µM; in data set [11], > 1000 µM; in [19] it was > 600 µM; in [14] it was > 1000 µM. The CC50 in [16] was > 1000 µM; in data set [17], > 200 µM; in data set [18], > 600 µM; in [20], > 200 µM; in data set [21], > 1000 µM. Besides, in data set [3], the “IL-2, mean percentage of activated control” value is 131 ± 12%. For the same compound, the “IFN-γ, mean percentage of activated control” value in data set [6] is recorded as 122 ± 3%. In addition, the “Clinical pathology (hemolytic anemia, leukopenia)” value in [12] is “did not produce any observable clinical pathology”. The “TNF-α, mean percentage of activated control” value in [15] came out at 144 ± 7%.

What is called EC50 is the concentration that produces a half-maximal response. Usually CC50 stands for the concentration at which the toxic effect on the cells reaches its halfway point.

The record behind these values is patent US20030092644A1, “Treatment of viral infections using levovirin” (priority 2002, published 2003).
